Laboratory results published in the supplement of paper PMC7840683.
Where a name gives a salt, the structure may show the parent alone. ± gives the standard deviation of the averaged measurements.

Test system: HepaRG
Test: LDH release cytotoxicity, % of total lysis control; higher = more cytotoxic
Conditions: 48 h
Summary of the method: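 Single-lot HepaRG cells on collagen I-coated 96-well plates were exposed for 48 h in duplicate, in serum-free induction medium with 0.5% DMSO, to eight-point half-log series (test chemicals top 100 µM). Total lysis wells received 0.1% Triton X, and LDH leakage into 50 µL spent medium was read as resorufin fluorescence (CytoTox-ONE, Tecan Safire). Percent cytotoxicity was normalized to on-plate vehicle and total lysis controls and averaged over the duplicates.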

SMILES | LDH release cytotoxicity (0.03162 µM) | LDH release cytotoxicity (0.1 µM) | LDH release cytotoxicity (0.3162278 µM) | LDH release cytotoxicity (1 µM) | LDH release cytotoxicity (3.16228 µM) | LDH release cytotoxicity (10 µM) | LDH release cytotoxicity (31.6228 µM) | LDH release cytotoxicity (100 µM) | LDH release cytotoxicity (0.031623 µM) | LDH release cytotoxicity (0.316228 µM)
O=C(O)C1C(C(=O)O)C2(Cl)C(Cl)=C(Cl)C1(Cl)C2(Cl)Cl (centres undefined) [Chlorendic acid] | -0.458 ± 0.46% | -0.878 ± 0.64% | -1.72 ± 0.51% | -1.15 ± 0.69% | -0.967 ± 0.21% | -0.519 ± 0.29% | -0.436 ± 0.8% | 0.638 ± 1.1% | – | –
CCOP(=S)(OCC)OC(Cl)C(Cl)(Cl)Cl (centres undefined) [Chlorethoxyfos] | -1.98 ± 0.044% | -1.72 ± 0.32% | -0.757 ± 0.55% | -2.38 ± 0.29% | -1.72 ± 0.38% | -0.842 ± 0.087% | -1.18 ± 0.36% | -1.1 ± 0.44% | – | –
N=C1C=NN(c2ccccc2)C(=O)C1Cl (centres undefined) [Chloridazon] | -1.49 ± 0.4% | -1.35 ± 0.3% | -0.939 ± 0.84% | -1.3 ± 0.23% | -0.697 ± 0.44% | -0.282 ± 0.67% | -0.579 ± 1.3% | 2.76 ± 0.26% | – | –
CCOC(=O)C(O)(c1ccc(Cl)cc1)c1ccc(Cl)cc1 [Chlorobenzilate] | -0.592 ± 1.7% | -1.28 ± 2.1% | -1.55 ± 0.35% | -2.17 ± 0.12% | -2.04 ± 1.4% | -1.17 ± 0.5% | -0.669 ± 0.95% | 3.46 ± 1.6% | – | –
COc1cc(Cl)c(OC)cc1Cl [Chloroneb] | -1.52 ± 0.84% | -0.787 ± 0.028% | -1.49 ± 0.12% | -2.31 ± 0.56% | -1.57 ± 0.11% | -0.979 ± 0.73% | -0.777 ± 0.15% | 0.671 ± 2.6% | – | –
N#Cc1c(Cl)c(Cl)c(Cl)c(C#N)c1Cl [Chlorothalonil] | – | -1.96 ± 3.7% | – | -2.72 ± 1.5% | -0.469 ± 1.9% | 4.78 ± 0.7% | 20.5 ± 1.1% | 48.7 ± 34% | -0.0289 ± 0.73% | -3.42 ± 0.39%
CN(C)CCCN1c2ccccc2Sc2ccc(Cl)cc21 [Chlorpromazine hydrochloride] | – | -1.97 ± 1.4% | – | -2.9 ± 0.0051% | -1.62 ± 1.7% | -1.31 ± 0.15% | 10.7 ± 2% | 77.6 ± 2.4% | -1.42 ± 0.91% | -1.98 ± 0.49%
CC(C)OC(=O)Nc1cccc(Cl)c1 [Chlorpropham] | -1.82 ± 0.15% | -0.0252 ± 1.6% | -2.28 ± 0.48% | -2.1 ± 0.63% | -1.45 ± 0.039% | -1.72 ± 0.48% | -1.01 ± 0.056% | 1.41 ± 0.48% | – | –
